≈ marks a conversion by molar mass, not a printed value.
Assays:
[1] = test system: Escherichia coli TEM9 2639E; assay: Minimum inhibitory concentration (agar 2-fold dilution); format: cell-based; details: TEM92639E, 20 h, read-out: Minimum Inhibitory Concentration
Procedure: (§1) The minimum inhibitory concentration was determined by diluting the test compounds according to 2-fold dilution, suspending them in Muller-Hinton agar medium, inoculating 2 μl of the suspension containing the test strains having 10^7 CFU (Colony Forming Unit) per 1 ml into the medium and then culturing the test strains at 37° C. for 20 hours.

[2] = test system: Pseudomonas aeruginosa 6065; assay: as above; format: cell-based; details: Pseudomonas aeruginosa; P. aeruginosa 6065; Muller-Hinton agar, 37° C., 20 hours; read-out: Minimum Inhibitory Concentration
Procedure: as §1

[3] = test system: Escherichia coli TEM3 3455E; assay: as above; format: cell-based; details: TEM33455E, 20 h, read-out: Minimum Inhibitory Concentration
Procedure: as §1

[4] = test system: Streptococcus faecalis 29212A; assay: as above; format: cell-based; details: Enterococcus faecalis; S. faecalis 29212A; Muller-Hinton agar, 37° C., 20 hours; read-out: Minimum Inhibitory Concentration
Procedure: as §1

Enterobacter cloacae P99 = assay: as above; format: cell-based; details: P99, 20 h, read-out: Minimum Inhibitory Concentration
Procedure: as §1

Escherichia coli 3190Y = assay: as above; format: cell-based; details: E. coli 3190Y, Muller-Hinton agar, 37° C., 20 hours, read-out: Minimum Inhibitory Concentration
Procedure: as §1

[5] = test system: Enterobacter cloacae IND + VE 1194E; assay: as above; format: cell-based; details: E. cloacae IND + VE 1194E, Muller-Hinton agar, 37° C., 20 hours, read-out: Minimum Inhibitory Concentration
Procedure: as §1

[6] = test system: Klebsiella aerogenes SHV-1 1976E; assay: as above; format: cell-based; details: SHV11976E, K. aerogenes SHV-1 1976E, Muller-Hinton agar, 37° C., 20 hours
Procedure: as §1

Escherichia coli 851E = assay: as above; format: cell-based; details: E. coli 851E, Muller-Hinton agar, 37° C., 20 hours
Procedure: as §1

[7] = test system: Staphylococcus aureus 6538P; assay: as above; format: cell-based; details: S. aureus 6538P, Muller-Hinton agar, 37° C., 20 hours, read-out: Minimum Inhibitory Concentration
Procedure: as §1

Proteus vulgaris 6059A = assay: as above; format: cell-based; details: P. vulgaris 6059A, Muller-Hinton agar, 37° C., 20 hours, read-out: Minimum Inhibitory Concentration
Procedure: as §1

[8] = test system: Escherichia coli TEM1 1193E; assay: as above; format: cell-based; details: TEM11193E, 20 h, read-out: Minimum Inhibitory Concentration
Procedure: as §1

[9] = test system: Staphylococcus aureus giorgio; assay: as above; format: cell-based; details: S. aureus giorgio, Muller-Hinton agar, 37° C., 20 hours, read-out: Minimum Inhibitory Concentration
Procedure: as §1

[10] = test system: Klebsiella aerogenes K1 + 1082E; assay: as above; format: cell-based; details: 20 h, read-out: Minimum Inhibitory Concentration
Procedure: as §1

[11] = test system: Acinetobacter calcoaceticus 15473A; assay: as above; format: cell-based; details: A. calcoaceticus 15473A, Muller-Hinton agar, 37° C., 20 hours, read-out: Minimum Inhibitory Concentration
Procedure: as §1

[12] = test system: Staphylococcus aureus 241; assay: as above; format: cell-based; details: Staphylococcus aureus; S. aureus 241; Muller-Hinton agar, 37° C., 20 hours; read-out: Minimum Inhibitory Concentration
Procedure: as §1

[13] = test system: Staphylococcus aureus epidermidis 887E; assay: as above; format: cell-based; details: S. aureus epidermidis 887E, Muller-Hinton agar, 37° C., 20 hours, read-out: Minimum Inhibitory Concentration
Procedure: as §1

[14] = test system: Citrobacter diversus 2046E; assay: as above; format: cell-based; details: Citrobacter koseri; C. diversus 2046E; Muller-Hinton agar, 37° C., 20 hours; read-out: Minimum Inhibitory Concentration
Procedure: as §1

[15] = test system: Serratia marcescens 1826E; assay: as above; format: cell-based; details: S. marcescens 1826E, Muller-Hinton agar, 37° C., 20 hours, read-out: Minimum Inhibitory Concentration
Procedure: as §1

[16] = test system: Escherichia coli TEM7 3457E; assay: as above; format: cell-based; details: TEM73457E, 20 h, read-out: Minimum Inhibitory Concentration
Procedure: as §1

[17] = test system: Escherichia coli TEM5 3739E; assay: as above; format: cell-based; details: TEM53739E, 20 h, read-out: Minimum Inhibitory Concentration
Procedure: as §1

Staphylococcus aureus 77 = assay: as above; format: cell-based; details: Staphylococcus aureus; S. aureus 77; Muller-Hinton agar, 37° C., 20 hours; read-out: Minimum Inhibitory Concentration
Procedure: as §1

Escherichia coli 10536 = assay: as above; format: cell-based; details: Escherichia coli; E. coli 10536; Muller-Hinton agar, 37° C., 20 hours; read-out: Minimum Inhibitory Concentration
Procedure: as §1

[18] = test system: Pseudomonas aeruginosa 1912E; assay: as above; format: cell-based; details: P. aeruginosa 1912E, Muller-Hinton agar, 37° C., 20 hours, read-out: Minimum Inhibitory Concentration
Procedure: as §1

[19] = test system: Pseudomonas aeruginosa 10145; assay: as above; format: cell-based; details: Pseudomonas aeruginosa; P. aeruginosa 10145; Muller-Hinton agar, 37° C., 20 hours; read-out: Minimum Inhibitory Concentration
Procedure: as §1

[20] = test system: Salmonella typhimurium 14028A; assay: as above; format: cell-based; details: Salmonella enterica; S. typhimurium 14028A; Muller-Hinton agar, 37° C., 20 hours; read-out: Minimum Inhibitory Concentration
Procedure: as §1

[21] = Pharmacokinetic properties in rats (blood concentration by agar well biological assay); design: species or system SD rats (male); details: rat, in vivo, iv, 20 mg/kg
Procedure: The pharmacokinetic properties of the compound of the present invention were determined using SD rats (.male.) weighing 230±10 g. Specifically,the test samples were injected into femoral vein in an amount of 20 mg/kg to 4 to 5 test animals. Blood was taken from femoral vein 1, 2.5, 5, 10, 20, 40, 60, 120 and 180 minutes after administration and then subjected to a biological assay using agar well method to measure the blood concentration.

Cc1c(N)nc[n+](C/C=C/C2=C(C(=O)[O-])N3C(=O)[C@@H](NC(=O)/C(=N\O[C@H](C(=O)O)c4ccc(O)c(O)c4)c4csc(N)n4)[C@H]3SC2)c1N [Compound I-4a, 7-[(Z)-2-(2-aminothiazol-4-yl)-2-(α-carboxy-3,4-dihydroxybenzyloxyimino)acetamido]-3-[(E)-3-(4,6-diamino-5-methylpyrimidinium-1-yl)-1-propen-1-yl]-3-cephem-4-carboxylate]
MIC [1]: 2 mg/L (≈ 2.87 µM)
MIC [2]: 1 mg/L (≈ 1.43 µM)
MIC [3]: 0.25 mg/L (≈ 0.358 µM)
MIC [4]: 4 mg/L (≈ 5.73 µM)
MIC (Enterobacter cloacae P99): 8 mg/L (≈ 11.5 µM)
MIC (Escherichia coli 3190Y): 0.063 mg/L (≈ 0.0903 µM)
MIC [5]: 2 mg/L
MIC [6]: 0.13 mg/L (≈ 0.186 µM)
MIC (Escherichia coli 851E): 0.063 mg/L (≈ 0.0903 µM)
MIC [7]: 0.5 mg/L (≈ 0.717 µM)
MIC (Proteus vulgaris 6059A): 0.063 mg/L (≈ 0.0903 µM)
MIC [8]: 0.063 mg/L (≈ 0.0903 µM)
MIC [9]: 0.25 mg/L (≈ 0.358 µM)
MIC [10]: 0.063 mg/L (≈ 0.0903 µM)
MIC [11]: 0.5 mg/L (≈ 0.717 µM)
MIC [12]: 64 mg/L (≈ 91.7 µM)
MIC [13]: 16 mg/L (≈ 22.9 µM)
MIC [14]: 0.13 mg/L (≈ 0.186 µM)
MIC [15]: 0.25 mg/L (≈ 0.358 µM)
MIC [16]: 0.25 mg/L (≈ 0.358 µM)
MIC [17]: 2 mg/L (≈ 2.87 µM)
MIC (Staphylococcus aureus 77): 2 mg/L (≈ 2.87 µM)
MIC (Escherichia coli 10536): 0.008 mg/L (≈ 0.0115 µM)
MIC [18]: 4 mg/L (≈ 5.73 µM)
MIC [19]: 0.5 mg/L (≈ 0.717 µM)
MIC [20]: 0.016 mg/L (≈ 0.0229 µM)
AUC [21]: 53.1 µg·h/mL
half-life [21]: 53 min
